These results are taken from patent US8039670B2, “Analogs of alpha galactosyceramide and uses thereof” (Ludwig Institute for Cancer Research, priority 2005, dated 2011).

The target in experiment [1] is T1, human invariant Vα24^+/Vβ11^+ TCR binding to hCD1d-lipid complex (Homo sapiens, UniProt P15813).
T1 construct: soluble human CD1d molecules; made in house
Put plainly: Surface plasmon resonance (Biacore) of soluble iNKT TCR binding to hCD1d monomers loaded with analogs. The following applies: for Kd: equilibrium binding, read-out: Kd of the TCR binding to the monomer; for koff: kinetic measurement, read-out: rate of dissociation (Koff) between the TCR and the monomer. Here is the method:
Affinity and kinetics of iNKT TCR binding to hCD1d complexed with α-GalCer or OCH. Increasing concentrations from 0.4 μM to 194 μM (two-fold dilution) of iNKT TCR were injected for 5 seconds over the indicated hCD1d-GSL complexes. The binding responses of 5 concentrations are shown superimposed. The panels on the right show binding response at equilibrium.
The affinities of a soluble NKT cell TCR for human CD1d molecules refolded with different analogs of α-GalCer were measured. Equilibrium binding and kinetic measurements respectively were made for α-GalCer (A and B), threitolceramide (C and D), 4S-threitolceramide (E and F), 4R-threitolceramide (G and H). The Kd values (μM) were calculated from equilibrium binding. The Kon values shown were calculated from Koff and Kd.
We then assessed whether the length of the acyl and sphingosine chains could affect the affinity of iNKT TCR binding to glycolipid-CD1d complex. We refolded Vα24 and Vβ11 chains of the iNKT TCR as previously described (Gadola, Koch et al, J Exp Med, 2006, 203; 699-710) and used the purified and refolded iNKT TCR in surface plasmon resonance studies against immobilized biotinylated CD1d monomers loaded with either α-GalCer or OCH.
To characterize the affinity of analogs of α-GalCer, biotinylated hCD1d monomers were generated using previously described protocols (Karadimitris, Gadola et al, Proc Natl Acad Sci USA, 2001, 98; 3294-8) bound to the different analogs. Surface plasmon resonance (Biacore) analysis was performed using a soluble disulphide-linked human invariant Vα24^+/Vβ11^+ TCR (Gadola, Koch et al, J Exp Med, 2006, 203; 699-710) to measure the equilibrium dissociation constants (Kd) of binding of the TCR to different monomers (FIG. 3).
In general terms: In SPR one partner is held on a chip, and binding of the other changes the refractive index at the surface.

A further experiment concerns human DC. Put plainly: DC maturation in co-culture of human DC and iNKT cells (flow cytometry CD83, CD86, CD38). It is filed as cell-based. The note with it: data not shown. Here is the method: Different analogs of α-GalCer as indicated or LPS were added to co-cultures of human DC and iNKT cells. (A) Maturation of the DC was assessed after 40 h, gating on CD11c positive cells. Histograms indicate the CD83 and CD86 profiles of DC from different treatments; the percentages indicate the percentage of CD83hi mature DC and the numbers in parenthesis, the mean fluorescence intensity of the population contained within the labeled gate. DC and iNKT cells were co-cultured in the presence of different analogs of α-GalCer for 24 hours. Supernatants were analyzed using ELISA for the presence of (B) IL-12p40 released by the DC and (C) IFN-γ from the iNKT cells. […] Cells were co-cultured in the presence of the indicated concentration of analog and the percentages of DC with increased CD83/CD80 are shown. […] Viability of α-GalCer or analog-pulsed DC was assessed after 40 h co-culture in the presence of iNKT cells by flow cytometry. Cells were stained with propidium iodide and the percentage of live CD11c gated cells remaining in the culture are shown.
Human monocyte-derived DC were pulsed with 150 ng of different inositol analogs and co-cultured with iNKT cells for 24 h. […] Numbers indicate the mean fluorescence intensity of the histogram gated on CD11c^+ cells.
Immature human DC were cultured in the presence of a human iNKT cell clone with or without analogs or vehicle at different concentrations.
To compare the functions of high affinity α-GalCer, intermediate affinity threitolceramide with the known, low affinity analog OCH, the three compounds were titrated onto DC and used to present to iNKT cells. Maturation of DC and DC viability were examined after 48 h.
(Flow cytometry measures light scatter and fluorescence of single cells or particles in a stream.)

A further experiment has as its system iNKT cell clone. Put plainly: Cytokine release from iNKT cell clone stimulated with analog-pulsed C1R-human CD1d cells. Type of experiment: cell-based. The following applies: 24 h, titration. The protocol:
FIG. 9 Inositol-based α-GalCer derivatives are functional in vitro. Human monocyte-derived DC were pulsed with 150 ng of different inositol analogs and co-cultured with iNKT cells for 24 h. […] Numbers indicate the mean fluorescence intensity of the histogram gated on CD11c^+ cells. 6-Deoxy and 6-Sulfono-myo-inositolceramide induce significant (B) IL-12p40 and (C) IFN-γ production by DC and iNKT cells respectively in the supernatants of co-cultured DC and iNKT cells. […] Release of (D) IFN-g and (E) IL-4 from iNKT cells after 24 h in culture with C1R-human CD1d cells pulsed with α-GalCer, 6-Deoxy- or 6-Sulfono-myo-inositolceramide.
The three inositol compounds were titrated on C1R cells expressing human CD1d and used to stimulate an iNKT cell clone.

By Kd is commonly meant a measure of binding affinity in units of concentration. The term koff denotes the first-order rate constant of dissociation. For the compound `CCCCCCCCCCCCCCCCCCCCCCCCCC(=O)N[C@@H](COC[C@H](O)[C@@H](O)[C@H](O)c1ccccc1)[C@H](O)[C@H](O)CCCCCCCCCCCCCC` [Compound 15, 4-(R)-Phenyl Threitol Ceramide], in experiment [1], the Kd turned out to be 4.25 µM and the koff is 0.506 s⁻¹.

As to Inositol Ceramide [Compound 10], in the experiment with human DC, the “DC maturation and cytokine production from iNKT cells (first test)” value is “induced detectable DC maturation and cytokine production from iNKT cells”. In the experiment with iNKT cell clone, the “IFN-γ release from iNKT cells” value was “little or no IFN-γ and IL-4”; the “IL-4 release from iNKT cells” value is “little or no IFN-γ and IL-4”.

For D-myo-Inositol Ceramide [Compound 12], in the experiment on iNKT cell clone, the “IFN-γ release from iNKT cells” value is given as “significant levels of both cytokines” and the “IL-4 release from iNKT cells” value is “significant levels of both cytokines”.

Consider `CCCCCCCCCCCCCCCCCCCCCCCCCC(=O)N[C@@H](COC[C@H](O)[C@@H](O)[C@@H](O)c1ccccc1)[C@H](O)[C@H](O)CCCCCCCCCCCCCC` [Compound 14, 4-(S)-Phenyl Threitol Ceramide], for which, in experiment [1], the Kd came to 3.84 µM and the koff was found to be 0.65 s⁻¹.

As for “D-myo-Inositol Ceramide Salt [Compound 13]”, in the experiment with iNKT cell clone, the “IFN-γ release from iNKT cells” value was “little or no IFN-γ release” and the “IL-4 release from iNKT cells” value is recorded as “detectable IL-4 was produced when higher concentrations of the compound were used”.
